Test results taken from patent publication US20080070867A1, “2-Imidazolone and 2-Imidazolidinone Heterocyclic Inhibitors of Tyrosine Phosphatases” (Metabasis Therapeutics, Inc., priority 2005, published 2008).

Biological target: T1, Human recombinant PTP-1B (Homo sapiens, UniProt P18031)
T1 construct: Human recombinant PTP-1B, containing amino acids 1-321, fused to GST enzyme; GST (glutathione S-transferase)
T1 sequence (P18031 1-321): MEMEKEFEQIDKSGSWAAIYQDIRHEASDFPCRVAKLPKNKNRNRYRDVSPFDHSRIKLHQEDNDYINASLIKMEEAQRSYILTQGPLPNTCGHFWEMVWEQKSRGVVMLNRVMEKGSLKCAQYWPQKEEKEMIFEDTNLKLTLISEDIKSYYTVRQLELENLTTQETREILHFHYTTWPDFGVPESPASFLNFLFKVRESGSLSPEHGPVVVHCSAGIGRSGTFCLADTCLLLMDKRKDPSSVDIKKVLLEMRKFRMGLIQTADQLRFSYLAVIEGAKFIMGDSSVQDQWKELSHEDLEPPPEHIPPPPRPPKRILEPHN
Test: Assay for PTP-1B Activity (pNPP substrate)
Format: biochemical
Details: human recombinant PTP-1B (1-321) GST fusion, 2 mM pNPP, pH 7.4, 30° C., 20 min; read-out: Activity Code (IC50 range)
Description: The activity of the compounds as modulators of protein tyrosine phosphatase, including PTP-1B, may be measured in standard assays (see, e.g., Examples 41 and 42). Briefly, the assay described herein employs human recombinant PTP-1B and a pNPP substrate in a rescue assay.
Assay for PTP-1B Activity
Enzyme: Human recombinant PTP-1B, containing amino acids 1-321, fused to GST enzyme (glutathione S-transferase) purified by affinity chromatography (Huyer et al, 1997, J. Biol. Chem., 272, 843-852).
pNPP: p-Nitrophenyl Phosphate (Calbiochem)
Assay Buffer: 50 mM HEPES (pH 7.4), 100 mM NaCl, 2 mM EDTA, 3 mM DTT
(5×) pNPP substrate: 10 mM pNPP in assay buffer
Enzyme: 1 mg/ml PTP1B (1-321), dilute 1:200 in assay buffer
Assay buffer: 50 mM HEPES (pH 7.4), 100 mM NaCl, 2 mM EDTA, 3 mM DTT
Enzyme dilution buffer: 50 mM HEPES (pH 7.4), 100 mM NaCl, 2 mM EDTA, 3 mM DTT
Substrate 198 mM p-Nitrophenyl Phosphate (pNPP) store at 4° C.
The assay was carried out at 30° C. in 96 well plates. The reaction mixture in 60 ul contained 50 mM HEPES (pH 7.4), 100 mM NaCl, 2 mM EDTA, 3 mM DTT, and 2 mM p-Nitrophenyl Phosphate (pNPP). 5 ul of the test compound (inhibitor) dissolved in DMSO or DMSO alone for control was added to each well and the plate was mixed for 2 min. The reaction was initiated by adding 20 ul of diluted PTP1B (5 ng/ul in 50 mM HEPES (pH 7.4), 100 mM NaCl, 2 mM EDTA, 3 mM DTT). After 20 min at 30° C., the enzyme reaction was terminated by adding 100 ul of 2 M K2CO3 to each well. The phosphatase activity was detected by using Victor II plate reader (Wallac) with absorbance detection at 405 nm. All the assays were done at least in duplicate. The initial rate of pNP is plotted against the concentration of inhibitor.

Row | IC50 | SMILES
1 | < 99 nM | O=C(O)COc1ccc(-c2cn(C3CC3)c(=O)n2Cc2ccc(C(F)(F)P(=O)(O)O)c(Br)c2)cc1 [Compound 52, (4-{3-[3-Bromo-4-(difluoro-phosphono-methyl)-benzyl]-1-cyclopropyl-2-oxo-2,3-dihydro-1H-imidazol-4-yl}-phenoxy)-acetic acid]
2 | 2500 to 25000 nM | CC(C)(C)C(=O)OCOC(=O)c1ccc(-c2cn(Cc3ccccc3)c(=O)n2Cc2ccc(C(F)(F)P(=O)(O)OCOC(=O)C(C)(C)C)c(Br)c2)cc1 [Compound 53, 4-[1-Benzyl-3-(3-bromo-4-{[(2,2-dimethyl-propionyloxy-methoxy)-hydroxy-phosphoryl]-difluoro-methyl}-benzyl)-2-oxo-2,3-dihydro-1H-imidazol-4-yl]-benzoic acid 2,2-dimethyl-propionyloxymethyl ester]
3 | 100 to 249 nM | COC(=O)c1ccc(Cn2cc(-c3ccccc3)n(Cc3ccc(C(F)(F)P(=O)(O)O)c(Br)c3)c2=O)cc1 [Compound 54, 4-{3-[3-Bromo-4-(difluoro-phosphono-methyl)-benzyl]-2-oxo-4-phenyl-2,3-dihydro-imidazol-1-ylmethyl}-benzoic acid methyl ester]
4 | 250 to 2500 nM | O=C(O)c1ccc(Cn2cc(-c3ccccc3)n(Cc3ccc(C(F)(F)P(=O)(O)O)c(Br)c3)c2=O)cc1 [Compound 55, 4-{3-[3-Bromo-4-(difluoro-phosphono-methyl)-benzyl]-2-oxo-4-phenyl-2,3-dihydro-imidazol-1-ylmethyl}-benzoic acid]
5 | 2500 to 25000 nM | CC(C)(C)C(=O)OCOP(=O)(O)C(F)(F)c1ccc(Cn2c(-c3ccc(C#N)cc3)cn(Cc3ccccc3)c2=O)cc1Br [Compound 56, 2,2-Dimethyl-propionic acid ({4-[3-benzyl-5-(4-cyano-phenyl)-2-oxo-2,3-dihydro-imidazol-1-ylmethyl]-2-bromo-phenyl}-difluoro-methyl)-hydroxy-phosphinoyloxymethyl ester]
6 | > 25000 nM | CC(C)(C)C(=O)OCOP(=O)(OCOC(=O)C(C)(C)C)C(F)(F)c1ccc(Cn2c(-c3ccc(C#N)cc3)cn(Cc3ccccc3)c2=O)cc1Br [Compound 57, 2,2-Dimethyl-propionic acid ({4-[3-benzyl-5-(4-cyano-phenyl)-2-oxo-2,3-dihydro-imidazol-1-ylmethyl]-2-bromo-phenyl}-difluoro-methyl)-(2,2-dimethyl-propionyloxy-methoxy)-phosphinoyloxymethyl ester]
7 | 250 to 2500 nM | CS(=O)(=O)c1ccc(Cn2cc(-c3ccccc3)n(Cc3ccc(C(F)(F)P(=O)(O)O)c(Br)c3)c2=O)cc1 [Compound 58, ({2-Bromo-4-[3-(4-methanesulfonyl-benzyl)-2-oxo-5-phenyl-2,3-dihydro-imidazol-1-ylmethyl]-phenyl}-difluoro-methyl)-phosphonic acid]
8 | 2500 to 25000 nM | CC(C)OC(=O)OC(C)OC(=O)c1ccc(-c2cn(Cc3ccccc3)c(=O)n2Cc2ccc(C(F)(F)P(=O)(O)OC(C)OC(=O)OC(C)C)c(Br)c2)cc1 (stereo not drawn) [Compound 59, 4-[1-Benzyl-3-(3-bromo-4-{difluoro-[hydroxy-(1-isopropoxy-carbonyloxy-ethoxy)-phosphoryl]-methyl}-benzyl)-2-oxo-2,3-dihydro-1H-imidazol-4-yl]-benzoic acid 1-isopropoxy-carbonyloxy-ethyl ester]
9 | 2500 to 25000 nM | COc1cccc(Cn2ccn(Cc3ccc(C(F)(F)P(=O)(O)O)c(Br)c3)c2=O)c1 [Compound 60, ({2-Bromo-4-[3-(3-methoxy-benzyl)-2-oxo-2,3-dihydro-imidazol-1-ylmethyl]-phenyl}-difluoro-methyl)-phosphonic acid]
10 | 250 to 2500 nM | CCOC(=O)c1ccc(-n2ccn(Cc3ccc(C(F)(F)P(=O)(O)O)c(Br)c3)c2=O)cc1 [Compound 61, 4-{3-[3-Bromo-4-(difluoro-phosphono-methyl)-benzyl]-2-oxo-2,3-dihydro-imidazol-1-yl}-benzoic acid ethyl ester]
11 | 250 to 2500 nM | COC(=O)c1cccc(-c2cn(C3CC3)c(=O)n2Cc2ccc(C(F)(F)P(=O)(O)O)c(Br)c2)c1 [Compound 62, 3-{3-[3-Bromo-4-(difluoro-phosphono-methyl)-benzyl]-1-cyclopropyl-2-oxo-2,3-dihydro-1H-imidazol-4-yl}-benzoic acid methyl ester]
12 | 250 to 2500 nM | O=C(O)c1cccc(-c2cn(C3CC3)c(=O)n2Cc2ccc(C(F)(F)P(=O)(O)O)c(Br)c2)c1 [Compound 63, 3-{3-[3-Bromo-4-(difluoro-phosphono-methyl)-benzyl]-1-cyclopropyl-2-oxo-2,3-dihydro-1H-imidazol-4-yl}-benzoic acid]
13 | 2500 to 25000 nM | CC(C)(C)C(=O)OCOP(=O)(O)C(F)(F)c1ccc(Cn2c(-c3ccc(S(C)(=O)=O)cc3)c[nH]c2=O)cc1Br [Compound 64, 2,2-Dimethyl-propionic acid ({2-bromo-4-[5-(4-methanesulfonyl-phenyl)-2-oxo-2,3-dihydro-imidazol-1-ylmethyl]-phenyl}-difluoro-methyl)-hydroxy phosphinoyloxymethyl ester]
14 | 2500 to 25000 nM | CC(C)OC(=O)OC(C)OP(=O)(O)C(F)(F)c1ccc(Cn2c(-c3ccc(S(C)(=O)=O)cc3)c[nH]c2=O)cc1Br (stereo not drawn) [Compound 65, ({2-Bromo-4-[5-(4-methanesulfonyl-phenyl)-2-oxo-2,3-dihydro-imidazol-1-ylmethyl]phenyl}-difluoro-methyl) phosphonic acid mono-(1-isopropoxy-carbonyloxy-ethyl) ester]
15 | > 25000 nM | CCOC(=O)n1cc(-c2ccc(C(=O)OC)cc2)n(Cc2ccc(C(F)(F)P(=O)(O)OCOC(=O)C(C)(C)C)c(Br)c2)c1=O [Compound 66, 3-(3-Bromo-4-{[(2,2-dimethyl-propionyloxy-methoxy)-hydroxy-phosphoryl]-difluoro-methyl}-benzyl)-4-(4-methoxycarbonyl-phenyl)-2-oxo-2,3-dihydro-imidazole-1-carboxylic acid ethyl ester]
16 | 250 to 2500 nM | COC(=O)c1ccc(-c2cn(Cc3ccc(C(F)(F)P(=O)(O)O)c(Br)c3)c(=O)n2Cc2ccccc2)cc1 [Compound 67, 4-{3-Benzyl-1-[3-bromo-4-(difluoro-phosphono-methyl)-benzyl]-2-oxo-2,3-dihydro-1H-imidazol-4-yl}-benzoic acid methyl ester]
17 | 250 to 2500 nM | O=C(O)c1ccc(-c2cn(Cc3ccc(C(F)(F)P(=O)(O)O)c(Br)c3)c(=O)n2Cc2ccccc2)cc1 [Compound 68, 4-{3-Benzyl-1-[3-bromo-4-(difluoro-phosphono-methyl)-benzyl]-2-oxo-2,3-dihydro-1H-imidazol-4-yl}-benzoic acid]
18 | 2500 to 25000 nM | Cn1cc(-c2ccc(S(C)(=O)=O)cc2)n(Cc2ccc(C(F)(F)P(=O)(O)OCOC(=O)C(C)(C)C)c(Br)c2)c1=O [Compound 69, 2,2-Dimethyl-propionic acid ({2-bromo-4-[5-(4-methanesulfonyl-phenyl)-3-methyl-2-oxo-2,3-dihydro-imidazol-1-ylmethyl]-phenyl}-difluoro-methyl)-hydroxy-phosphinoyloxymethyl ester]
19 | > 25000 nM | CC(C)OC(=O)OC(C)OP(=O)(O)C(F)(F)c1ccc(Cn2c(-c3ccc(S(C)(=O)=O)cc3)cn(C)c2=O)cc1Br (stereo not drawn) [Compound 70, ({2-Bromo-4-[5-(4-methanesulfonyl-phenyl)-3-methyl-2-oxo-2,3-dihydro-imidazol-1-ylmethyl]-phenyl}-difluoro-methyl)-phosphonic acid mono-(1-isopropoxy-carbonyloxy-ethyl) ester]
20 | 2500 to 25000 nM | O=c1n(Cc2ccccc2)ccn1Cc1ccc(C(F)(F)P(=O)(O)O)c(Br)c1 [Compound 71, {[4-(3-Benzyl-2-oxo-2,3-dihydro-imidazol-1-ylmethyl)-2-bromo-phenyl]-difluoro-methyl}-phosphonic acid]
21 | 2500 to 25000 nM | CC(C)OC(=O)OC(C)OP(=O)(O)C(F)(F)c1ccc(Cn2c(-c3ccc(Cl)cc3)cn(Cc3ccccc3)c2=O)cc1Br (stereo not drawn) [Compound 72, ({4-[3-Benzyl-5-(4-chloro-phenyl)-2-oxo-2,3-dihydro-imidazol-1-ylmethyl]-2-bromo-phenyl}-difluoro-methyl)-phosphonic acid mono-(1-isopropoxy-carbonyloxy-ethyl) ester]
